Results taken from patent US12319652B2, “Salts and solid forms of (R)-1-(5-methoxy-1H-indol-1-yl)-N,N-dimethylpropan-2-amine” (priority 2021, dated 2025).
Where two headings read alike, the source gives them in different places.

Columns and labels:
[1] = Solubility determinations in SIF buffers (FaSSIF, FeSSIF, FaSSGF); format: physicochemical
Protocol: At this stage ca. 1 g of each front-runner salt form was prepared. Salt forms that offered significant solubility and stability advantages over the non-ionized API were prioritized. […] Scale Up
The solubility of the salts below was determined in FaSSIF, FeSSIF and FaSSGF by reference to the calibration curve of amorphous compound 1.
Separate portions of compound 1 were weighed out into aluminum boats and were charged to the relevant volumetric flasks. Solutions were made to volume with 1 to 1 (v/v) acetonitrile/purified water to give calibrants of known API concentrations and analyzed by HPLC, suitable to determine the concentration of compound 1 free base in the SIF buffer solubility study.
Each sample (150 mg) was suspended in the relevant SIF buffer (5.0 ml), to give a concentration of 30 mg/ml and maintain at 37° C. for 24 h. The pH was adjusted using 1 M HCl or 1 M NaOH, to ensure that the suspension remains in range.
Sample (1 ml) of the well-stirred representative suspensions was obtained at 1 h, 3 h, 6 h and 24 h and the pH was recorded. The pH of the bulk suspension was re-adjusted when necessary. The obtained sample from each vial was centrifuged, and the supernatant was analysed by HPLC (note, the analyte was diluted, when outside of the calibration range); XRPD analysis was performed on the wet sample pellet for evidence of form change, as well as on the oven-dried pellet (undervacuum at 40° C.).

[2] = format: physicochemical
Protocol: Equilibrium Humidity Evaluation (40° C./75% RH for 10 Days)
100 mg portions of compound 1 salts (for inputs see table below) were placed in the relevant open vials. The powders were finely divided and distributed evenly over the base of the vial, such that equal material coverage across the panel was observed. These samples were then maintained 40°C. under 75% RH. The samples were sub-sampled at intervals of 5 and 10 days and analysed by ^1H NMR, HPLC, XRPD, DSC, TGA and PLM, for evidence of phase change or chemical degradation (FIG. 269-297).

[3] = FaSSGF (ph 1.6), t = 1 h@37° C.
[4] = FaSSGF (ph 1.6), t = 3 h@37° C.
[5] = FaSSGF (ph 1.6), t = 6 h@37° C.
[6] = FaSSGF (ph 1.6), t = 24 h @37° C.
[7] = FaSSIF (ph 6.5), t = 1 h@37° C.
[8] = FaSSIF (ph 6.5), t = 3 h@37° C.
[9] = FaSSIF (ph 6.5), t = 6 h@37° C.
[10] = FaSSIF (ph 6.5), t = 24 h @37° C.
[11] = FeSSIF (ph 5.0), t = 1 h@37° C.
[12] = FeSSIF (ph 5.0), t = 3 h@37° C.
[13] = FeSSIF (ph 5.0), t = 6 h@37° C.
[14] = FeSSIF (ph 5.0), t = 24 h @37° C.

Question: Which Solubility [1, 3] does the source give for `COc1ccc2c(ccn2C[C@@H](C)N(C)C)c1.O=C(O)/C=C/C(=O)O` [Compound 1 · Fumarate] here?
Answer: >30 mg/mL

Question: What about the Solubility [1, 4] of the same molecule?
Answer: >30 mg/mL

Question: And the Solubility [1, 5]?
Answer: >30 mg/mL

Question: And the Solubility [1, 6]?
Answer: >30 mg/mL

Question: And the Solubility [1, 7]?
Answer: >30 mg/mL

Question: And the Solubility [1, 8]?
Answer: >30 mg/mL

Question: And the Solubility [1, 9]?
Answer: >30 mg/mL

Question: What about the Solubility [1, 10] of the same molecule?
Answer: >30 mg/mL

Question: And the Solubility [1, 11]?
Answer: >30 mg/mL

Question: What about the Solubility [1, 12] of the same molecule?
Answer: >30 mg/mL

Question: What about the Solubility [1, 13] of the same molecule?
Answer: >30 mg/mL

Question: And the Solubility [1, 14]?
Answer: >30 mg/mL

Question: For `COc1ccc2c(ccn2C[C@@H](C)N(C)C)c1.Cl` [Compound 1 · HCl], which Solubility [1, 3] is on record?
Answer: >30 mg/mL

Question: And the Solubility [1, 4]?
Answer: >30 mg/mL

Question: And the Solubility [1, 5]?
Answer: >30 mg/mL

Question: What about the Solubility [1, 6] of the same molecule?
Answer: >30 mg/mL

Question: What about the Solubility [1, 7] of the same molecule?
Answer: >30 mg/mL

Question: And the Solubility [1, 8]?
Answer: >30 mg/mL

Question: What about the Solubility [1, 9] of the same molecule?
Answer: >30 mg/mL

Question: What about the Solubility [1, 10] of the same molecule?
Answer: >30 mg/mL

Question: And the Solubility [1, 11]?
Answer: >30 mg/mL

Question: And the Solubility [1, 12]?
Answer: >30 mg/mL

Question: And the Solubility [1, 13]?
Answer: >30 mg/mL

Question: What about the Solubility [1, 14] of the same molecule?
Answer: >30 mg/mL

Question: Which “HPLC peak RRT 0.93” value ([2]; salt before storage (t = 0)) does the source give for `COc1ccc2c(ccn2C[C@@H](C)N(C)C)c1.Cl` [HCl salt] here?
Answer: 0.01

Question: And the “HPLC peak RRT 0.98” value ([2]; salt before storage (t = 0))?
Answer: 0.02

Question: And the “HPLC peak RRT 0.99” value ([2]; salt before storage (t = 0))?
Answer: 0.01

Question: And the “HPLC peak RRT 1.00 (reference peak)” value ([2]; salt before storage (t = 0))?
Answer: 99.60

Question: And the “HPLC peak RRT 1.20” value ([2]; salt before storage (t = 0))?
Answer: 0.01

Question: And the “HPLC peak RRT 1.22” value ([2]; salt before storage (t = 0))?
Answer: 0.11

Question: And the “HPLC peak RRT 1.26” value ([2]; salt before storage (t = 0))?
Answer: 0.16

Question: And the “HPLC peak RRT 1.30” value ([2]; salt before storage (t = 0))?
Answer: 0.03

Question: And the “HPLC peak RRT 1.32” value ([2]; salt before storage (t = 0))?
Answer: 0.01

Question: What about the “HPLC peak RRT 1.35” value ([2]; salt before storage (t = 0)) of the same molecule?
Answer: 0.04

Question: What about the “HPLC peak RRT 0.93” value ([2]; t = 5 d at 75% RH at 40° C.) of the same molecule?
Answer: 0.05

Question: What about the “HPLC peak RRT 0.98” value ([2]; t = 5 d at 75% RH at 40° C.) of the same molecule?
Answer: 0.02

Question: What about the “HPLC peak RRT 1.00 (reference peak)” value ([2]; t = 5 d at 75% RH at 40° C.) of the same molecule?
Answer: 99.42

Question: And the “HPLC peak RRT 1.20” value ([2]; t = 5 d at 75% RH at 40° C.)?
Answer: 0.02

Question: What about the “HPLC peak RRT 1.22” value ([2]; t = 5 d at 75% RH at 40° C.) of the same molecule?
Answer: 0.42

Question: And the “HPLC peak RRT 1.26” value ([2]; t = 5 d at 75% RH at 40° C.)?
Answer: 0.02

Question: And the “HPLC peak RRT 1.28” value ([2]; t = 5 d at 75% RH at 40° C.)?
Answer: 0.02

Question: What about the “HPLC peak RRT 1.35” value ([2]; t = 5 d at 75% RH at 40° C.) of the same molecule?
Answer: 0.04

Question: And the “HPLC peak RRT 0.93” value ([2]; t = 10 d at 75% RH at 40° C.)?
Answer: 0.05

Question: What about the “HPLC peak RRT 0.98” value ([2]; t = 10 d at 75% RH at 40° C.) of the same molecule?
Answer: 0.01

Question: What about the “HPLC peak RRT 1.00 (reference peak)” value ([2]; t = 10 d at 75% RH at 40° C.) of the same molecule?
Answer: 99.60

Question: And the “HPLC peak RRT 1.22” value ([2]; t = 10 d at 75% RH at 40° C.)?
Answer: 0.31

Question: And the “HPLC peak RRT 1.35” value ([2]; t = 10 d at 75% RH at 40° C.)?
Answer: 0.02

Question: Which “HPLC peak RRT 0.93” value ([2]; salt before storage (t = 0)) does the source give for `COc1ccc2c(ccn2C[C@@H](C)N(C)C)c1.O=C(O)/C=C\C(=O)O` [Maleate salt] here?
Answer: 0.03

Question: What about the “HPLC peak RRT 0.98” value ([2]; salt before storage (t = 0)) of the same molecule?
Answer: 0.06

Question: And the “HPLC peak RRT 1.00 (reference peak)” value ([2]; salt before storage (t = 0))?
Answer: 99.22

Question: What about the “HPLC peak RRT 1.10” value ([2]; salt before storage (t = 0)) of the same molecule?
Answer: 0.28

Question: And the “HPLC peak RRT 1.13” value ([2]; salt before storage (t = 0))?
Answer: 0.14

Question: And the “HPLC peak RRT 1.17” value ([2]; salt before storage (t = 0))?
Answer: 0.02

Question: What about the “HPLC peak RRT 1.18” value ([2]; salt before storage (t = 0)) of the same molecule?
Answer: 0.03

Question: And the “HPLC peak RRT 1.19” value ([2]; salt before storage (t = 0))?
Answer: 0.08

Question: What about the “HPLC peak RRT 1.25” value ([2]; salt before storage (t = 0)) of the same molecule?
Answer: 0.03

Question: And the “HPLC peak RRT 1.34” value ([2]; salt before storage (t = 0))?
Answer: 0.11

Question: And the “HPLC peak RRT 0.84” value ([2]; t = 5 d at 75% RH at 40° C.)?
Answer: 0.31

Question: And the “HPLC peak RRT 0.93” value ([2]; t = 5 d at 75% RH at 40° C.)?
Answer: 0.05

Question: What about the “HPLC peak RRT 0.98” value ([2]; t = 5 d at 75% RH at 40° C.) of the same molecule?
Answer: 0.03

Question: And the “HPLC peak RRT 1.00 (reference peak)” value ([2]; t = 5 d at 75% RH at 40° C.)?
Answer: 99.09

Question: What about the “HPLC peak RRT 1.13” value ([2]; t = 5 d at 75% RH at 40° C.) of the same molecule?
Answer: 0.21

Question: What about the “HPLC peak RRT 1.19” value ([2]; t = 5 d at 75% RH at 40° C.) of the same molecule?
Answer: 0.10

Question: And the “HPLC peak RRT 1.34” value ([2]; t = 5 d at 75% RH at 40° C.)?
Answer: 0.22

Question: What about the “HPLC peak RRT 0.84” value ([2]; t = 10 d at 75% RH at 40° C.) of the same molecule?
Answer: 0.65

Question: And the “HPLC peak RRT 0.93” value ([2]; t = 10 d at 75% RH at 40° C.)?
Answer: 0.06

Question: What about the “HPLC peak RRT 0.98” value ([2]; t = 10 d at 75% RH at 40° C.) of the same molecule?
Answer: 0.05

Question: What about the “HPLC peak RRT 1.00 (reference peak)” value ([2]; t = 10 d at 75% RH at 40° C.) of the same molecule?
Answer: 98.30

Question: And the “HPLC peak RRT 1.13” value ([2]; t = 10 d at 75% RH at 40° C.)?
Answer: 0.33

Question: And the “HPLC peak RRT 1.19” value ([2]; t = 10 d at 75% RH at 40° C.)?
Answer: 0.09

Question: And the “HPLC peak RRT 1.22” value ([2]; t = 10 d at 75% RH at 40° C.)?
Answer: 0.09

Question: What about the “HPLC peak RRT 1.25” value ([2]; t = 10 d at 75% RH at 40° C.) of the same molecule?
Answer: 0.02

Question: And the “HPLC peak RRT 1.26” value ([2]; t = 10 d at 75% RH at 40° C.)?
Answer: 0.06

Question: What about the “HPLC peak RRT 1.28” value ([2]; t = 10 d at 75% RH at 40° C.) of the same molecule?
Answer: 0.05

Question: And the “HPLC peak RRT 1.32” value ([2]; t = 10 d at 75% RH at 40° C.)?
Answer: 0.10

Question: What about the “HPLC peak RRT 1.34” value ([2]; t = 10 d at 75% RH at 40° C.) of the same molecule?
Answer: 0.19
